Reference: patent US20070078185A1, “Methods and compositions for controlling invertebrate pests” (priority 2005, published 2007)

Experiments:
[1] = test system: C. elegans; experiment: In vivo response test: suppression of head oscillations in response to anterior touch, C. elegans on agar plates; details: compound added to C. elegans grown on agar plates at 0.3 mg/ml
Description: Behavioral assays were performed with young adults at room temperature (22-24° C.) and the different genotypes were scored in parallel on independent days. Egg-laying assays were performed as described by Koelle and Horvitz (Cell 84:115 (1996)). Suppression of head oscillations was tested by striking animals that were outside the bacterial lawn with a fine eyelash behind the posterior bulb of the pharynx; head oscillations were scored during backing response. Nose touch, osmotic avoidance touch were tested as previously described (see, for example, Way et al., Genes Dev. 3:1823-1833 (1989); or Bargmann et al., Cold Spring Harb. Symp. Quant. Biol. 55:529-538 (1990)). […] Animals were tested twenty-four hours after they were picked as late L4. Laser-ablated animals were tested at least ten times. […] Laser ablated animals were tested at least 20 times. Reversal assays were performed as described by Tsalik et al., J. Neurobiol. 56:178-197 (2003). Synthesis of 4-hydrazinomethyl-benzene-1,3-diol (compound 1). [drawing 4]
Alternatively, putative tyrosine decarboxylase inhibitors can be screened in vivo by observing its effect on invertebrates. […] Furthermore, a tyrosine decarboxylase inhibitor is expected to cause egg laying defects in nematodes, fruit flies, and other invertebrates. […]

[2] = test system: C. elegans; details: exogenous octopamine (Horvitz et al., Science 216:1012-1014 (1982)); cited from earlier work
[3] = test system: C. elegans; experiment: Egg-laying assay with exogenous amine on Petri plates; assay type: in vivo; details: wild-type animals, Petri plates with bacteria containing 20 mM tyramine
Description: FIGS. 5A-SC are graphs showing that tdc-1 mutant nematodes are hyperactive in egg laying. […] Error bars indicate standard errors of the means. […] Single wild-type animals were transferred to Petri dishes with bacteria containing either no tyramine (n=13) or 20 mM tyramine (n=12). At the indicated times after transfer the number of eggs laid was counted. Error bars indicate standard errors ofthe means.
We therefore tested the effect of exogenous tyramine on egg laying behavior. Egg laying was inhibited on Petri plates containing 20 mM tyramine (FIG. 5C). […] Egg laying is regulated in part by the serotonergic HSN neurons, which induce muscle contraction of the vulva muscles (Trent et al., Genetics 104:619-647 (1983)).
Behavioral assays were performed with young adults at room temperature (22-24° C.) and the different genotypes were scored in parallel on independent days. Egg-laying assays were performed as described by Koelle and Horvitz (Cell 84:115 (1996)). Suppression of head oscillations was tested by striking animals that were outside the bacterial lawn with a fine eyelash behind the posterior bulb of the pharynx; head oscillations were scored during backing response. Nose touch, osmotic avoidance touch were tested as previously described (see, for example, Way et al., Genes Dev. 3:1823-1833 (1989); or Bargmann et al., Cold Spring Harb. Symp. Quant. Biol. 55:529-538 (1990)). […]

SMILES: NC(CO)C(=O)NNCc1ccc(O)cc1O (racemic) [compound 2, N-(DL-seryl)-N′-(2,4,-dihydroxybenzyl) hydrazine]
- suppression of head oscillations in response to anterior touch [1]: fail to suppress head oscillations

SMILES: NCC(O)c1ccc(O)cc1 (stereo not drawn) [octopamine]
- effect of exogenous octopamine on egg laying [2]: inhibitory effect

SMILES: NCCc1ccc(O)cc1 [tyramine]
- effect of exogenous tyramine on egg laying [3]: inhibited
